For 22 molecules, IC50 and Ki results are on record in patent publication US11731943B2, “Therapeutic compounds, compositions and methods of use thereof” (priority 2016, dated 2023).

Read-outs that look alike come from different tables or passages of the source.

For assay [1], the system named is JAK1-dependent STAT6 phosphorylation downstream of IL-13 stimulation in BEAS-2B human bronchial epithelial cells. Put plainly: JAK1 pathway assay in BEAS-2B cells (IL-13-pSTAT6, MSD). The class given is cell-based. As to conditions: Homo sapiens, BEAS-2B. On the procedure:
JAK1 Pathway Assay in Cell Lines was carried out as follows:
Inhibitor potency (EC50) was determined in cell-based assays designed to measure JAK1 dependent STAT phosphorylation.
In one assay approach, TF-1 human erythroleukemia cells obtained from the American Type Culture Collection (ATCC; Manassas, Va.) were used to measure JAK1-dependent STAT6 phosphorylation downstream of IL-13 stimulation. Prior to use in the assays, TF-1 cells were starved of GM-CSF overnight in OptiMEM medium (Life Technologies, Grand Island, N.Y.) supplemented with 0.5% charcoal/dextran stripped fetal bovine serum (FBS), 0.1 mM non-essential amino acids (NEAA), and 1 mM sodium pyruvate. The assays were run in 384-well plates in serum-free OptiMEM medium using 300,000 cells per well. In a second assay approach, BEAS-2B human bronchial epithelial cells obtained from ATCC were plated at 100,000 cells per well of a 96-well plate one day prior to the experiment. The BEAS-2B assay was run in complete growth medium (bronchial epithelial basal medium plus bulletkit; Lonza; Basel, Switzerland).
Test compounds were serially diluted 1:2 in DMSO and then diluted 1:50 in medium just before use. Diluted compounds were added to the cells, for a final DMSO concentration of 0.2%, and incubated for 30 min (for the TF-1 assay) or 1 hr (for the BEAS-2B assay) at 37° C. Then, cells were stimulated with human recombinant cytokine at their respective EC90 concentrations, as previously determined for each individual lot. Cells were stimulated with IL-13 (R&D Systems, Minneapolis, Minn.) for 15 min at 37° C. The TF-1 cell reactions were stopped by the direct addition of 10× lysis buffer (Cell Signaling Technologies, Danvers, Mass.), whereas the BEAS-2B cell incubations were halted by the removal of medium and addition of 1× lysis buffer. The resultant samples were frozen in the plates at −80° C. Compound mediated inhibition of STATE phosphorylation was measured in the cell lysates using MesoScale Discovery (MSD) technology (Gaithersburg, Md.).

Assay [2] concerns the target isolated recombinant JAK1 kinase domain (Homo sapiens (Human), UniProt P23458). The assay can be described thus: JAK1 enzyme assay (Caliper LabChip, Ki). The assay is classed as biochemical. In short, it runs like this:
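Recombinant human JAK1 kinase domain phosphorylating an N-terminally 5-carboxyfluorescein-labelled JAK3-derived peptide, 30 min at 22 °C, stopped with EDTA (50 mM final). Phosphorylated fraction of total peptide read by Caliper LabChip mobility shift; Ki from Morrison tight-binding fit corrected for ATP competition (Ki=Ki,app/(1+[ATP]/Km,app)).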

Assay [3] deals with isolated recombinant JAK2 kinase domain (Homo sapiens (Human), UniProt O60674). The assay can be described thus: JAK2 enzyme assay (Caliper LabChip, Ki). The class given is biochemical. In short, it runs like this: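 Recombinant human JAK1 or JAK2 kinase domain phosphorylating a 5-carboxyfluorescein-labelled JAK3-derived peptide; 30 min at 22 °C, stopped with EDTA (50 mM final). Phosphorylated product measured as a fraction of total peptide by Caliper LabChip mobility shift.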
Chain of isolated recombinant JAK2 kinase domain (O60674 849-1124): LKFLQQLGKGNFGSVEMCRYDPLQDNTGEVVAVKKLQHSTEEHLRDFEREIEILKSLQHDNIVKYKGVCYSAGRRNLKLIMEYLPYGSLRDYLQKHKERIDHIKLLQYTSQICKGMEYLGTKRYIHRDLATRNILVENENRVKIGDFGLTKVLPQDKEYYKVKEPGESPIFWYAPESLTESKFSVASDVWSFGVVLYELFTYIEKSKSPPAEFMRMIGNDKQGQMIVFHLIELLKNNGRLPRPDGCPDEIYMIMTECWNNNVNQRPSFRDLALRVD

Where [4] appears, read: BEAS-2B cells, IL-13 stimulation, read-out: IL-13 p-STAT6 BEAS-2B IC50.

Chain of isolated recombinant JAK1 kinase domain (P23458 875-1153): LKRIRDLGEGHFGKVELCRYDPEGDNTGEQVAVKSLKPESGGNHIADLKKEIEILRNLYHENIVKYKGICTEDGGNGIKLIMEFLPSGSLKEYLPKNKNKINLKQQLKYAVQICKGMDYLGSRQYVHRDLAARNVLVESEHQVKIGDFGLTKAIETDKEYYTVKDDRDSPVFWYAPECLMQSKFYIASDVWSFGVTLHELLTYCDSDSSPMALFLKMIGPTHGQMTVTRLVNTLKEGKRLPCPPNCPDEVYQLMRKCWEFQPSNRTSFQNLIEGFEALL

The term IC50 denotes the concentration that inhibits the measured activity by half. In general, Ki refers to a measure of affinity in units of concentration, obtained from inhibition or displacement. In the case of `COC(=O)Nc1nn(C2(CC#N)CCN(Cc3c(F)cc(-c4ccccc4)c(O)c3F)CC2F)cc1C(N)=O` (stereo not drawn) [Example 248, Methyl N-[4-carbamoyl-1-[4-(cyanomethyl)-1-[(2,6-difluoro-3-hydroxy-4-phenylphenyl)methyl]-3-fluoropiperidin-4-yl]-1H-pyrazol-3-yl]carbamate], in assay [1] (setting [4]), the IC50 was determined as 30 nM. Besides, the values for the Ki in assay [2] (read-out: JAK1 Ki) and in assay [3] were 0.28 nM and 0.25 nM, respectively.
For `COC(=O)Nc1nn(C2(CC#N)CCN(Cc3cc(O)c(-c4ccc(C)o4)cc3F)CC2F)cc1C(N)=O` (stereo not drawn) [Example 256, methyl N-[4-carbamoyl-1-[4-(cyanomethyl)-3-fluoro-1-[[2-fluoro-5-hydroxy-4-(5-methyl-2-furyl)phenyl]methyl]-4-piperidyl]pyrazol-3-yl]carbamate], in that order: 47 nM, 0.15 nM and 0.89 nM.
For `N#CCC1(n2cc(C(N)=O)c(NC(=O)C3CC3)n2)CCN(CC(F)(F)F)CC1` [Example 23], in that order: 250 nM, 4.5 nM and 19.4 nM.
Turning to `CC(=O)Nc1cc(CN2CCC(CC#N)(n3cc(C(N)=O)c(NC(=O)C4CC4)n3)CC2)ccc1Cl` [Example 81], in assay [1] (setting [4]), the IC50 was greater than 1000 nM. Also, the Ki turned out to be 4.4 nM in assay [2] (read-out: JAK1 Ki) and 38.4 nM in assay [3].
For `CC[C@]1(n2cc(C(N)=O)c(Nc3ccc(S(C)(=O)=O)cc3)n2)CC[C@H](N2CC(C(F)(F)F)C2)CC1` [Example 302, 1-((1S,4S)-1-ethyl-4-(3-(trifluoromethyl)azetidin-1-yl)cyclohexyl)-3-((4-(methylsulfonyl)phenyl)amino)-1H-pyrazole-4-carboxamide], in that order: 43 nM, 0.94 nM and 2 nM.
The matching figures for `N#CCC1(n2cc(C(N)=O)c(NC(=O)C3CC3)n2)CCN(CC2CCC(c3ccccc3)CC2)CC1F` (stereo not drawn) [Example 233, 1-[4-(cyanomethyl)-3-fluoro-1-[(4-phenylcyclohexyl)methyl]-4-piperidyl]-3-(cyclopropanecarbonylamino) pyrazole-4-carboxamide]: 39 nM, 0.3 nM and 0.45 nM.
For `CS(=O)(=O)Nc1cc(F)cc(CN2CCC(CC#N)(n3cc(C(N)=O)c(NC(=O)C4CC4)n3)CC2)c1` [Example 80], in that order: greater than 1000 nM, 1.2 nM and 3.6 nM.
Take `N#CC[C@]1(n2cc(C(N)=O)c(NC(=O)C3CC3)n2)CC[C@@H](N2CC(OCc3ccccc3)(C(F)(F)F)C2)CC1` [Example 133]: the IC50 in assay [1] (setting [4]) was found to be 162 nM. Moreover, the Ki amounted to 2.5 nM in assay [2] (read-out: JAK1 Ki) and 15.6 nM in assay [3].
The matching figures for `COC(=O)Nc1nn(C2(CC#N)CCN(Cc3ccc(-n4nccn4)cc3)CC2)cc1C(N)=O` [Example 197, methyl N-[4-carbamoyl-1-[4-(cyanomethyl)-1-[[4-(triazol-2-yl)phenyl]methyl]-4-piperidyl]pyrazol-3-yl]carbamate]: 65 nM, 1.2 nM and 22 nM.
For `N#CCC1(n2cc(C(N)=O)c(NC(=O)C3CC3)n2)CCN(Cc2ccc(-c3ccccc3)c(C#N)c2)CC1` [Example 161, 1-[4-(cyanomethyl)-1-[(3-cyano-4-phenyl-phenyl)methyl]-4-piperidyl]-3-(cyclopropanecarbonylamino) pyrazole-4-carboxamide], in that order: 1010 nM, 5.5 nM and 35.3 nM.
The matching figures for `CCS(=O)(=O)Nc1cccc(CN2CCC(CC#N)(n3cc(C(N)=O)c(NC(=O)C4CC4)n3)CC2)c1` [Example 75]: greater than 1000 nM, 2.7 nM and 14 nM.
For the molecule `COC(=O)Nc1nn(C2(CC#N)CCN(Cc3ccc(-c4ccc(C)o4)c(O)c3)CC2F)cc1C(N)=O` (stereo not drawn) [Example 247, methyl N-[4-carbamoyl-1-[4-(cyanomethyl)-3-fluoro-1-[[3-hydroxy-4-(5-methyl-2-furyl)phenyl]methyl]-4-piperidyl]pyrazol-3-yl]carbamate], in assay [1] (setting [4]), the IC50 is 26 nM. The Ki in assay [2] (read-out: JAK1 Ki) is 0.35 nM; in assay [3] it was 0.43 nM.
For `COC(=O)Nc1nn(C2(CC#N)CCN(Cc3cc(O)cc(F)c3)CC2F)cc1C(N)=O` (stereo not drawn) [Example 293, methyl N-[4-carbamoyl-1-[4-(cyanomethyl)-3-fluoro-1-[(3-fluoro-5-hydroxy-phenyl)methyl]-4-piperidyl]pyrazol-3-yl]carbamate], in that order: 55 nM, 0.3 nM and 0.34 nM.
For `COC(=O)Nc1nn(C2(CC#N)CCN(Cc3ccc(C4CC4)cc3)CC2F)cc1C(N)=O` (stereo not drawn) [Example 281, methyl N-[4-carbamoyl-1-[4-(cyanomethyl)-1-[(4-cyclopropylphenyl)methyl]-3-fluoro-4-piperidyl]pyrazol-3-yl]carbamate], in that order: 36 nM, 1.1 nM and 2.2 nM.
Consider `CCc1ccc(-c2ccc(CN3CCC(CC#N)(n4cc(C(N)=O)c(NC(=O)C5CC5)n4)C(F)C3)cc2O)cc1` (stereo not drawn) [Example 212, 1-[4-(cyanomethyl)-1-[[4-(4-ethylphenyl)-3-hydroxy-phenyl]methyl]-3-fluoro-4-piperidyl]-3-(cyclopropanecarbonylamino) pyrazole-4-carboxamide], for which the IC50 in assay [1] (setting [4]) worked out at 27 nM. In addition, the Ki in assay [2] (read-out: JAK1 Ki) was found to be 0.22 nM; in assay [3], 0.3 nM.
As to `N#CC[C@]1(n2cc(C(N)=O)c(NC(=O)C3CC3)n2)CC[C@H](NCc2ccccc2Cl)CC1` [Example 117], the half-maximal inhibitory concentration (IC50) in assay [1] (setting [4]) is 611 nM. Moreover, the figures for the Ki in assay [2] and in assay [3] were 3.7 nM and 54.7 nM, respectively.
Consider `COC(=O)Nc1nn(C2(CC#N)CCN(Cc3ccc(-c4ccccc4)nc3)CC2F)cc1C(N)=O` (stereo not drawn) [Example 196, methyl N-[4-carbamoyl-1-[4-(cyanomethyl)-3-fluoro-1-[(6-phenyl-3-pyridyl)methyl]-4-piperidyl]pyrazol-3-yl]carbamate], for which the IC50 in assay [1] (setting [4]) was 30 nM. The Ki in assay [2] (read-out: JAK1 Ki) turned out to be 0.26 nM; in assay [3], 0.27 nM.
Take `N#CCC1(n2cc(C(N)=O)c(NC(=O)C3CC3)n2)CCN(Cc2ccc(-c3ccoc3)cc2)CC1F` (stereo not drawn) [Example 214, 1-[4-(cyanomethyl)-3-fluoro-1-[[4-(3-furyl)phenyl]methyl]-4-piperidyl]-3-(cyclopropanecarbonylamino) pyrazole-4-carboxamide]: in assay [1] (setting [4]), the IC50 was found to be 42 nM. For the same molecule, the Ki in assay [2] (read-out: JAK1 Ki) was found to be 0.31 nM; in assay [3], 0.62 nM.
The matching figures for `COC(=O)Nc1nn(C2(CC#N)CCN(Cc3cc(O)c(-c4ccccc4)cc3F)CC2F)cc1C(N)=O` (stereo not drawn) [Example 208, methyl N-[4-carbamoyl-1-[4-(cyanomethyl)-3-fluoro-1-[(2-fluoro-5-hydroxy-4-phenyl-phenyl)methyl]-4-piperidyl]pyrazol-3-yl]carbamate]: 28 nM, 0.17 nM and 0.21 nM.
For `N#CCC1(n2cc(C(N)=O)c(NC(=O)C3CC3)n2)CCN(Cc2ccc(-n3nccn3)cc2)CC1F` (stereo not drawn) [Example 199, 1-[4-(cyanomethyl)-3-fluoro-1-[[4-(triazol-2-yl)phenyl]methyl]-4-piperidyl]-3-(cyclopropanecarbonylamino) pyrazole-4-carboxamide], in that order: 64 nM, 0.52 nM and 0.55 nM.
For `COC(=O)Nc1nn(C2(CC#N)CCN(Cc3cc(O)c(-c4ccccc4)cc3F)CC2)cc1C(N)=O` [Example 206, methyl N-[4-carbamoyl-1-[4-(cyanomethyl)-1-[(2-fluoro-5-hydroxy-4-phenyl-phenyl)methyl]-4-piperidyl]pyrazol-3-yl]carbamate], in that order: 33 nM, 0.18 nM and 0.3 nM.
As to `N#CC[C@]1(n2cc(C(N)=O)c(NC(=O)C3CC3)n2)CC[C@@H](NCc2ccc(-c3ccccc3)cc2)CC1` [Example 128], the IC50 in assay [1] (read-out: IL-13 p-STAT6 BEAS-2B IC50, BEAS-2B cells, IL-13 stimulation) stood at 349 nM. Further, the Ki was determined as 4.6 nM in assay [2] and 46.4 nM in assay [3].
